Data set [1] deals with HeLa cells. The data set is described as follows: MTT cytotoxicity of prodrug-loaded liposomes and parent compounds, HeLa. It is filed as cell-based, Human. Particulars: 48 hours, free parent compounds or prodrug-incorporated liposomes (20 mol %), read-out: cell viability (MTT), potency.
Another data set has as its system MCF-7 cells. As to the kind of experiment: MTT cytotoxicity of prodrug-loaded liposomes and parent compounds, MCF-7. It is filed as cell-based, Human. Particulars: MCF7, 48 hours, free parent compounds or prodrug-incorporated liposomes (20 mol %), read-out: cell viability (MTT), potency.
Another data set concerns MCF10A cells. As to the kind of experiment: MTT cytotoxicity of prodrug-loaded liposomes and parent compounds, MCF10A. The data set is classed as cell-based. Particulars: 48 hours, free parent compounds or prodrug-incorporated liposomes (20 mol %), read-out: cell viability (MTT), potency.
Data set [2] in a line: Differential scanning calorimetry of loaded liposomes. The note with it: increasing concentration, prodrugs 0 to 37 mol %, parents 0 to 31 mol %; compared to empty liposomes; not extruded. It is filed as physicochemical. How it is done: Prodrug-loaded liposome (PLL) samples were prepared using 20 mg of lipid per 1 mL of […] for each compound with increasing prodrug concentrations without extrusion. Deionized water was used as the calibration standard. 10 μL from each liposome suspension was transferred and sealed in an aluminum DSC pan. DSC measurements were taken at room temperature, and the sample was then heated from 15° C. to 55° C. at 5° C./min.
DSC is a thermal analytical technique useful for designing lipid drug delivery systems, like liposomes, by determining the compatibility of mixed molecules and compositions with the liposome bilayer. The thermotropic behavior of the liposomes at varying prodrug concentrations is measured to determine whether insertion of the molecules modifies the phase transition temperature. The pre-phase transition was masked by PEG-2000. […] As the concentration was increased, the phase transition returned to the phase transition of empty liposomes. […] All liposome suspensions used for DSC analysis were prepared in deionized water instead of sodium buffer to prevent undesired interactions. The samples were not extruded.
On the technique in general: Differential scanning calorimetry records heat flow against a reference as temperature is scanned.

The nature of data set [3]: 2T-T incorporation in liposomes (UV-vis, pre- and post-extrusion). The note with it: 2T-T liposomes; for Actual Drug Incorporation - Post: post-extrusion; for Actual Drug Incorporation - Pre: pre-extrusion. The data set is classed as physicochemical. How it is done: 2T-T liposomes were produced with increasing concentrations of 2T-T, and passed through an extruder to remove any unincorporated 2T-T from the liposome solution. Liposome solutions were analyzed both pre- and post-extrusion using UV-vis spectroscopy with a scanning range of 200 nm-500 nm, 2 nm bandwidth, […], 0.5 nm data interval, and 100 nm/min scan speed. […] Incorporation limits were analyzed up to 70 mol % (147 uM).

Data set [4] is described as follows: Liposomal particle size distribution and stability (DLS). It is filed as physicochemical. Also on record: liposome diameter (DLS), Pre / liposome diameter (DLS), Post: unit not given beside the values. The note with it: for PDI, Post / liposome diameter (DLS), Post: post-extrusion; for PDI, Pre / liposome diameter (DLS), Pre: pre-extrusion. The source says:
Liposomal size distribution was characterized via dynamic light scattering (DLS). Measurements were taken with disposable polystyrene sizing cuvettes containing the liposome suspensions. Reported DLS measurements are averages of 3 individually prepared liposome samples.
The size distribution of the parent compounds and prodrug loaded liposomes were monitored over time using dynamic light scattering (DLS).
The size distribution of 2T-T liposomes were characterized via DLS measurement both pre- and post-extrusion. The standard deviations of liposome diameter were lower post extrusion. […] The size distributions of 2T-T liposomes at loaded with various concentrations of 2T-T can be seen in TABLE 2, and FIGS. 10-11. […]

Data set [5] is described as follows: 2T-P and 2T-N incorporation efficiency in liposomes (UV-Vis). It is filed as physicochemical. The note with it: parent compound in liposomes. As to the method:
Parent compound and prodrug concentrations in liposomes were determined using UV-Vis spectrophotometry; (2T-P: 292 nm; 2T-N: 285 nm). PLL were prepared at varying concentrations between 0 mol % to 50 mol %. The lipid amounts remained equivalent for samples under 50 mol %. Each sample was extruded through a 200 nm pore membrane for a total of 11 passes. Prior and post extrusion liposomes were ruptured by dissolution in DMSO (liposome suspension/DMSO, 1:9, v/v). Samples were analyzed in a quartz cuvette. The following parameters were used: scan speed: 120 nm/min; bandwidth: 2 nm; integration time: 0.15 sec; data interval: 0.30 nm; start wavelength: 500 nm; end wavelength: 190 nm.
N and P (SCHEME 1) are hydrophobic compounds that have been altered to contain an amphiphilic tail (2T-P and 2T-N), altering their incorporation within liposomes, which can be characterized using UV-Vis. This technique measures the decreasing transmittance through a sample surface. The absorption of the liposomes at varying concentrations (after removal of unincorporated material) can be used to calculate how much of a drug has been incorporated into liposomes.

In data set [6] the test system is HeLa cells. As to the kind of experiment: MTT cytotoxicity of 2T-T and 2T-C prodrug-loaded liposomes. It is filed as cell-based. The note with it: Homo sapiens. How it is done:
To assess the cytotoxicity of 2T-T prodrug-loaded liposomes, HeLa cells were exposed to different concentrations of topotecan or 2T-T loaded liposomes for 72 hours. After the 72 hour incubation period, cell viability was assessed via an MTT assay.
To assess the cytotoxicity of 2T-C prodrug-loaded liposomes, HeLa cells were exposed to different concentrations of cytarabine or 2T-C(NH2 attachment) loaded liposomes for 48 hours. After the 48 hour incubation period, cell viability was assessed via a MTT assay.

We go through six molecules from patent US20210361575A1, “LIPID PRODRUGS FOR USE IN DRUG DELIVERY” (NEW MEXICO TECH UNIVERSITY RESEARCH PARK CORPORATION, priority 2018, published 2021).

Where two headings read alike, the source gives them in different places.

Consider `CCCCCCCCCCCCCCCC(=O)OCC(COP(=O)([O-])OCCNC(=O)CCCC(=O)O[C@@H]1c2cc3c(cc2[C@H](c2cc(OC)c(OC)c(OC)c2)[C@@H]2C(=O)OC[C@H]21)OCO3)OC(=O)CCCCCCCCCCCCCCC.[Na+]` (stereo partly drawn) [2T-P, Sodium 2,3-bis (palmitoyloxy) propyl (2-(5-oxo-5-(((5S,5aS,8aS,9S)-8-oxo-9-(3,4,5-trimethoxyphenyl)-5,5a,6,8,8a,9-hexahydrofuro[3′,4′:6,7]naphtha[2,3-d][1,3]dioxol-5-yl)oxy)pentanamido)ethyl)phosphate], for which the IC50 was 1370 ± 44 nM in the data set with HeLa cells [1], 2560 ± 126 nM in the data set on MCF-7 cells and 1540 ± 130 nM in the data set on MCF10A cells. The “phase transition temperature behaviour (DSC thermograms)” value in data set [2] is recorded as “shallow decreasing phase transition temperatures”.
On to `CCCCCCCCCCCCCCCC(=O)OCC(COP(=O)([O-])OCCNC(=O)CCCC(=O)Oc1ccc2nc3c(cc2c1CN(C)C)Cn1c-3cc2c(c1=O)COC(=O)[C@@]2(O)CC)OC(=O)CCCCCCCCCCCCCCC.[Na+]` (some centres unmarked) [2T-T], for which the “Actual Drug Incorporation - Post” value in data set [3] (predicted 10 mol % (28.2 uM)) is 22.1 ± 7.9 µM; in data set [3] (predicted 20 mol % (53.4 uM)), 42.8 ± 4.8 µM; in data set [3] (predicted 30 mol % (76.0 uM)), 66.2 ± 4.9 µM; in data set [3] (predicted 40 mol % (96.5 uM)), 77.9 ± 12.3 µM; in data set [3] (predicted 50* mol % (115.1 uM)) it was 116.2 µM; in data set [3] (predicted 60* mol % (132.0 uM)), 126.2 µM. Besides, in data set [3] (predicted 70* mol % (147.6 uM)), the “Actual Drug Incorporation - Post” value was 133.7 µM. For the same molecule, the “Actual Drug Incorporation - Pre” value was 25.3 ± 6.6 µM in data set [3] (predicted 10 mol % (28.2 uM)); 46.8 ± 4.8 µM in data set [3] (predicted 20 mol % (53.4 uM)); 71.5 ± 5.1 µM in data set [3] (predicted 30 mol % (76.0 uM)); 82.6 ± 13.1 µM in data set [3] (predicted 40 mol % (96.5 uM)); 113.4 µM in data set [3] (predicted 50* mol % (115.1 uM)); 125.4 µM in data set [3] (predicted 60* mol % (132.0 uM)). The “Actual Drug Incorporation - Pre” value in data set [3] (predicted 70* mol % (147.6 uM)) was 133.0 µM. Further, the “PDI, Post” value in data set [4] (2T-T 10 mol %) amounted to 0.3 ± 0; in data set [4] (2T-T 20 mol %) it was 0.3 ± 0; in data set [4] (2T-T 30 mol %), 0.3 ± 0; in data set [4] (2T-T 40 mol %), 0.3 ± 0; in data set [4] (2T-T 50* mol %), 0.3; in data set [4] (2T-T 60* mol %), 0.3. Further, the “PDI, Post” value in data set [4] (2T-T 70* mol %) came out at 0.3. Further, the “liposome diameter (DLS), Post” value is 130 ± 7 in data set [4] (2T-T 10 mol %); 129 ± 9 in data set [4] (2T-T 20 mol %); 118 ± 25 in data set [4] (2T-T 30 mol %); 123 ± 10 in data set [4] (2T-T 40 mol %); 122.4 in data set [4] (2T-T 50* mol %); 88.76 in data set [4] (2T-T 60* mol %). Besides, the “liposome diameter (DLS), Post” value in data set [4] (2T-T 70* mol %) is recorded as 75.43. The “PDI, Pre” value in data set [4] (2T-T 10 mol %) was 0.3 ± 0; in data set [4] (2T-T 20 mol %), 0.3 ± 0.1; in data set [4] (2T-T 30 mol %), 0.3 ± 0; in data set [4] (2T-T 40 mol %), 0.3 ± 0; in data set [4] (2T-T 50* mol %) it was 0.3; in data set [4] (2T-T 60* mol %), 0.5. In data set [4] (2T-T 70* mol %), the “PDI, Pre” value stood at 0.4. For the same molecule, the “liposome diameter (DLS), Pre” value in data set [4] (2T-T 10 mol %) was determined as 102 ± 19; in data set [4] (2T-T 20 mol %) it was 121 ± 16; in data set [4] (2T-T 30 mol %), 98 ± 28; in data set [4] (2T-T 40 mol %) it was 114 ± 24; in data set [4] (2T-T 50* mol %), 122.4; in data set [4] (2T-T 60* mol %), 182.9. For the same molecule, the “liposome diameter (DLS), Pre” value in data set [4] (2T-T 70* mol %) amounted to 172.1.
`O=C1OCC2=C1C(c1cc(Br)cc(Br)c1)c1ccc3ccc(O)cc3c1N2` (centres unmarked) [N, 7-(3,5-Dibromophenyl)-2-hydroxy-7,11-dihydrobenzo[h]-furo[3,4-b]quinolin-8(10H)-one]: the IC50 with HeLa cells [1] (Homo sapiens) was determined as 5 ± 1 nM; in the data set with MCF-7 cells (Homo sapiens), 3 nM; in the data set on MCF10A cells (Homo sapiens, MCF-10A) it was 5 nM. Further, the maximum measured loading in data set [5] is recorded as about 1.1 mol %.
`COc1cc([C@@H]2c3cc4c(cc3[C@H](O)[C@H]3COC(=O)[C@H]23)OCO4)cc(OC)c1OC` [P, podophyllotoxin]: the IC50 stood at 9 ± 1 nM in the data set on HeLa cells [1] (Homo sapiens); 9 ± 4 nM in the data set with MCF-7 cells (Homo sapiens); 14 ± 4 nM in the data set on MCF10A cells (Homo sapiens, MCF-10A). Further, in data set [5], the maximum measured loading was about 11 mol %.
`Nc1ccn([C@@H]2O[C@H](CO)[C@@H](O)[C@@H]2O)c(=O)n1` [cytarabine]: the IC50 in the data set on HeLa cells [6] (48 hours) is 4450 ± 6290 nM.
As for `CC[C@@]1(O)C(=O)OCc2c1cc1n(c2=O)Cc2cc3c(CN(C)C)c(O)ccc3nc2-1` [topotecan], the IC50 in the data set on HeLa cells [6] (72 hours) was found to be 51 ± 1 nM.
